Data reported in ChEMBL document CHEMBL1641578, “Design and synthesis of 3-(azol-1-yl)phenylpropanes as microbicidal spermicides for prophylactic contraception” (Bioorg Med Chem Lett, 2011).
≈ marks a conversion by molar mass, not a printed value.

Legend:
Candida parapsilosis = assay: Antifungal activity against Candida parapsilosis after 48 hrs by broth microdilution assay; type: functional; conditions: Lodderomyces parapsilosis
Candida albicans [1] = assay: Antifungal activity against Candida albicans NCIM-3557 after 48 hrs by broth microdilution assay; type: functional; conditions: NCIM-3557, 48 h
[2] = Toxicity against Lactobacillus acidophilus at 200 ug/ml after 24 hrs by microplate reader
Candida albicans [3] = assay: Antifungal activity against Candida albicans MTCC-183 after 48 hrs by broth microdilution assay; type: functional; conditions: MTCC-183, 48 h
Candida albicans [4] = assay: Antifungal activity against Candida albicans after 48 hrs by broth microdilution assay; type: functional
Candida albicans [5] = assay: Antifungal activity against Candida albicans isolate CDRI after 48 hrs by broth microdilution assay; type: functional
HeLa = assay: Cytotoxicity against human HeLa cells at 200 ug/ml after 24 hrs by MTT based colorimetric assay; type: cell-based
Spermatozoa = assay: Spermicidal activity against human spermatozoa assessed as immobilization measured for 60 seconds by visual scoring; type: functional; design: concentration or dose not given beside the values
Trichomonas vaginalis = assay: Antitrichomonas activity against Trichomonas vaginalis after 48 hrs by trypan blue exclusion assay; type: functional

MIC (Candida parapsilosis)	MIC (Candida albicans [1])	MIC (Candida albicans [3])	MIC (Candida albicans [4])	MIC (Candida albicans [5])	MIC (Trichomonas vaginalis)	SMILES	Activity [2]	Activity (HeLa)	Activity (Spermatozoa)
> 50 µg/mL	> 50 µg/mL	> 50 µg/mL	> 50 µg/mL	50 µg/mL (≈ 180 µM)	> 200 µg/mL	FC(F)(F)c1ccc(OC/C=C/c2ccccc2)cc1	Non-toxic	Non-toxic	90%
50 µg/mL (≈ 199 µM)	50 µg/mL (≈ 199 µM)	> 50 µg/mL	> 50 µg/mL	> 50 µg/mL	200 µg/mL (≈ 796 µM)	O=C(CCn1nnc2ccccc21)c1ccccc1	Non-toxic	Non-toxic	80%
> 50 µg/mL	> 50 µg/mL	> 50 µg/mL	> 50 µg/mL	50 µg/mL (≈ 233 µM)	> 200 µg/mL	Cc1nccn1CCC(=O)c1ccccc1	Non-toxic	Toxic	100%
> 50 µg/mL	> 50 µg/mL	50 µg/mL (≈ 144 µM)	50 µg/mL (≈ 144 µM)	> 50 µg/mL	50 µg/mL (≈ 144 µM)	FC(F)(F)c1ccc(OC(CCn2cncn2)c2ccccc2)cc1 (stereo not drawn)	Toxic	Toxic	100%
> 50 µg/mL	> 50 µg/mL	> 50 µg/mL	50 µg/mL (≈ 206 µM)	> 50 µg/mL	25 µg/mL (≈ 103 µM)	Cc1ncc([N+](=O)[O-])n1C/C=C/c1ccccc1	Non-toxic	Non-toxic	90%

Second part, the molecule before the results:

SMILES	MIC (Candida parapsilosis)	MIC (Candida albicans [1])	MIC (Candida albicans [3])	MIC (Candida albicans [4])	MIC (Candida albicans [5])	MIC (Trichomonas vaginalis)	Activity [2]	Activity (HeLa)	Activity (Spermatozoa)
FC(F)(F)c1ccc(OC(CCn2ccnc2)c2ccccc2)cc1 (stereo not drawn)	50 µg/mL (≈ 144 µM)	50 µg/mL (≈ 144 µM)	50 µg/mL (≈ 144 µM)	12.5 µg/mL (≈ 36.1 µM)	50 µg/mL (≈ 144 µM)	12.5 µg/mL (≈ 36.1 µM)	Toxic	Toxic	100%
Cc1ncc([N+](=O)[O-])n1CCC(Oc1ccc(C(F)(F)F)cc1)c1ccccc1 (stereo not drawn)	> 50 µg/mL	> 50 µg/mL	> 50 µg/mL	> 50 µg/mL	> 50 µg/mL	25 µg/mL (≈ 61.7 µM)	Non-toxic	Non-toxic	70%
Cc1nccn1CCC(Oc1ccc(C(F)(F)F)cc1)c1ccccc1 (stereo not drawn)	50 µg/mL (≈ 139 µM)	50 µg/mL (≈ 139 µM)	25 µg/mL (≈ 69.4 µM)	25 µg/mL (≈ 69.4 µM)	50 µg/mL (≈ 139 µM)	25 µg/mL (≈ 69.4 µM)	Toxic	Toxic	100%
O=[N+]([O-])c1cn(CCC(O)c2ccccc2)cn1 (stereo not drawn)	> 50 µg/mL	> 50 µg/mL	> 50 µg/mL	> 50 µg/mL	50 µg/mL (≈ 202 µM)	25 µg/mL (≈ 101 µM)	Non-toxic	Non-toxic	95%
O=[N+]([O-])c1cn(CCC(Oc2ccc(C(F)(F)F)cc2)c2ccccc2)cn1 (stereo not drawn)	> 50 µg/mL	> 50 µg/mL	> 50 µg/mL	> 50 µg/mL	> 50 µg/mL	12.5 µg/mL (≈ 31.9 µM)	Non-toxic	Non-toxic	40%
FC(F)(F)c1ccc(OC(CCn2cnc3ccccc32)c2ccccc2)cc1 (stereo not drawn)	> 50 µg/mL	> 50 µg/mL	> 50 µg/mL	> 50 µg/mL	> 50 µg/mL	25 µg/mL (≈ 63.1 µM)	Toxic	Toxic	50%
O=C(CCn1ccnc1)c1ccccc1	> 50 µg/mL	> 50 µg/mL	> 50 µg/mL	> 50 µg/mL	50 µg/mL (≈ 250 µM)	> 200 µg/mL	Non-toxic	Non-toxic	100%
Cc1nccn1CCC(O)c1ccccc1 (stereo not drawn)	> 50 µg/mL	> 50 µg/mL	> 50 µg/mL	> 50 µg/mL	> 50 µg/mL	> 200 µg/mL	Non-toxic	Non-toxic	100%
Cc1ncc([N+](=O)[O-])n1CCO [METRONIDAZOLE]	–	–	–	–	–	2 µg/mL (≈ 11.7 µM)	–	–	–
